Assay results: US11389447B2 (Janssen Sciences Ireland Unlimited Company, priority 2006, dated 2022)

Assay: Kinetic study: plasma kinetics of TMC278 after single IM or SC injection of a nanosuspension;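 further: healthy male beagle dogs injected in both biceps femoris muscles (IM) or both thoracal sides (SC), total volume 0.2 mL/kg, drug measured in plasma from blood samples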
Assay type: in vivo, male beagle dogs
Settings: for AUC0-312 h / AUC0-696 h / AUC0-2208 h / Cmax / Tmax / plasma concentration of TMC278: single IM 5 mg eq./kg TMC278.HCl nanosuspension
Procedure: Six healthy male beagle dogs with body weights ranging from 8 to 16 kg at the start of the study, were used. Each dog was identified by an ear tattoo number. Two dogs were dosed intramuscularly (IM) in the left and right m. biceps femoris (treatment group A). […] Two dogs were dosed subcutaneously (SC) in the left and right thoracal region. The injection volume was 2×0.1 ml/kg in all treatment groups. A 20 G needle was used.
Blood samples of 3 ml were taken from the left jugular vein from all dogs on day 0 at 0 h (predose), 20 min, 1 h, 3 h, 8 h and 24 h post-dose and further on days 2, 3, 6, 8, 10, 13, 16, 20, 23, 27, 29, 36, 43, 50, 57, 64, 71, 78, 85 and 92 at approximately 8 AM. Blood samples were placed on EDTA, EDTA Vacuette Greiner, Cat. No. 454086, Greiner Labortechnik N.V.). Within 2 h of blood sampling, samples were centrifuged at room temperature at about 1900×g for 10 minutes to allow plasma separation. Plasma was immediately transferred into a second tube and stored in the freezer within 2 hours after the start of centrifugation.

- AUC0-312 h (dog 19072): 15000 ng·h/mL
- AUC0-696 h (dog 19072): 20300 ng·h/mL
- AUC0-2208 h (dog 19072): 27400 ng·h/mL
- Cmax (dog 19072): 85.6 ng/mL
- Tmax (dog 19072): 48 h
- plasma concentration of TMC278 (dog 19072, 0 h (d0, predose)): <1.00 ng/mL
- plasma concentration of TMC278 (dog 19072, 1 h): 7.80 ng/mL
- plasma concentration of TMC278 (dog 19072, 3 h): 14.7 ng/mL
- plasma concentration of TMC278 (dog 19072, 8 h): 32.2 ng/mL
- plasma concentration of TMC278 (dog 19072, 24 h (d1)): 50.1 ng/mL
- plasma concentration of TMC278 (dog 19072, 48 h (d2)): 85.6 ng/mL
- plasma concentration of TMC278 (dog 19072, 72 h (d3)): 47.5 ng/mL
- plasma concentration of TMC278 (dog 19072, 144 h (d6)): 48.3 ng/mL
- plasma concentration of TMC278 (dog 19072, 192 h (d8)): 46.8 ng/mL
- plasma concentration of TMC278 (dog 19072, 240 h (d10)): 55.7 ng/mL
- plasma concentration of TMC278 (dog 19072, 312 h (d13)): 27.0 ng/mL
- plasma concentration of TMC278 (dog 19072, 384 h (d16)): 17.0 ng/mL
- plasma concentration of TMC278 (dog 19072, 480 h (d20)): 13.7 ng/mL
- plasma concentration of TMC278 (dog 19072, 648 h (d27)): 7.91 ng/mL
- plasma concentration of TMC278 (dog 19072, 696 h (d29)): 10.2 ng/mL
- plasma concentration of TMC278 (dog 19072, 864 h (d36)): 6.18 ng/mL
- plasma concentration of TMC278 (dog 19072, 1032 h (d43)): 6.32 ng/mL
- plasma concentration of TMC278 (dog 19072, 1200 h (d50)): 4.56 ng/mL
- plasma concentration of TMC278 (dog 19072, 1368 h (d57)): 4.73 ng/mL
- plasma concentration of TMC278 (dog 19072, 1536 h (d64)): 4.47 ng/mL
- plasma concentration of TMC278 (dog 19072, 1704 h (d71)): 3.38 ng/mL
- plasma concentration of TMC278 (dog 19072, 1872 h (d78)): 3.12 ng/mL
- plasma concentration of TMC278 (dog 19072, 2040 h (d85)): 3.20 ng/mL
- plasma concentration of TMC278 (dog 19072, 2208 h (d92)): 2.96 ng/mL
- AUC0-312 h (dog 19080): 20900 ng·h/mL
- AUC0-696 h (dog 19080): 30500 ng·h/mL
- AUC0-2208 h (dog 19080): 39900 ng·h/mL
- Cmax (dog 19080): 105 ng/mL
- Tmax (dog 19080): 48 h
- plasma concentration of TMC278 (dog 19080, 0 h (d0, predose)): <1.00 ng/mL
- plasma concentration of TMC278 (dog 19080, 1 h): 7.19 ng/mL
- plasma concentration of TMC278 (dog 19080, 3 h): 16.3 ng/mL
- plasma concentration of TMC278 (dog 19080, 8 h): 27.1 ng/mL
- plasma concentration of TMC278 (dog 19080, 24 h (d1)): 69.8 ng/mL
- plasma concentration of TMC278 (dog 19080, 48 h (d2)): 105 ng/mL
- plasma concentration of TMC278 (dog 19080, 72 h (d3)): 69.5 ng/mL
- plasma concentration of TMC278 (dog 19080, 144 h (d6)): 62.3 ng/mL
- plasma concentration of TMC278 (dog 19080, 192 h (d8)): 65.8 ng/mL
- plasma concentration of TMC278 (dog 19080, 240 h (d10)): 82.2 ng/mL
- plasma concentration of TMC278 (dog 19080, 312 h (d13)): 45.8 ng/mL
- plasma concentration of TMC278 (dog 19080, 384 h (d16)): 31.9 ng/mL
- plasma concentration of TMC278 (dog 19080, 480 h (d20)): 25.5 ng/mL
- plasma concentration of TMC278 (dog 19080, 648 h (d27)): 14.4 ng/mL
- plasma concentration of TMC278 (dog 19080, 696 h (d29)): 18.8 ng/mL
- plasma concentration of TMC278 (dog 19080, 864 h (d36)): 11.4 ng/mL
- plasma concentration of TMC278 (dog 19080, 1032 h (d43)): 8.18 ng/mL
- plasma concentration of TMC278 (dog 19080, 1200 h (d50)): 5.68 ng/mL
- plasma concentration of TMC278 (dog 19080, 1368 h (d57)): 5.08 ng/mL
- plasma concentration of TMC278 (dog 19080, 1536 h (d64)): 4.43 ng/mL
- plasma concentration of TMC278 (dog 19080, 1704 h (d71)): 3.90 ng/mL
- plasma concentration of TMC278 (dog 19080, 1872 h (d78)): 3.20 ng/mL
- plasma concentration of TMC278 (dog 19080, 2040 h (d85)): 4.00 ng/mL
- plasma concentration of TMC278 (dog 19080, 2208 h (d92)): 2.81 ng/mL
- AUC0-312 h (mean of 2 dogs): 18000 ng·h/mL
- AUC0-696 h (mean of 2 dogs): 25400 ng·h/mL
- AUC0-2208 h (mean of 2 dogs): 33600 ng·h/mL
- Cmax (mean of 2 dogs): 95.3 ng/mL
- Tmax (mean of 2 dogs): 48 h
- plasma concentration of TMC278 (mean of 2 dogs, 0 h (d0, predose)): <1.00 ng/mL
- plasma concentration of TMC278 (mean of 2 dogs, 1 h): 7.50 ng/mL
- plasma concentration of TMC278 (mean of 2 dogs, 3 h): 15.5 ng/mL
- plasma concentration of TMC278 (mean of 2 dogs, 8 h): 29.7 ng/mL
- plasma concentration of TMC278 (mean of 2 dogs, 24 h (d1)): 60.0 ng/mL
- plasma concentration of TMC278 (mean of 2 dogs, 48 h (d2)): 95.3 ng/mL
- plasma concentration of TMC278 (mean of 2 dogs, 72 h (d3)): 58.5 ng/mL
- plasma concentration of TMC278 (mean of 2 dogs, 144 h (d6)): 55.3 ng/mL
- plasma concentration of TMC278 (mean of 2 dogs, 192 h (d8)): 56.3 ng/mL
- plasma concentration of TMC278 (mean of 2 dogs, 240 h (d10)): 69.0 ng/mL
- plasma concentration of TMC278 (mean of 2 dogs, 312 h (d13)): 36.4 ng/mL
- plasma concentration of TMC278 (mean of 2 dogs, 384 h (d16)): 24.5 ng/mL
- plasma concentration of TMC278 (mean of 2 dogs, 480 h (d20)): 19.6 ng/mL
- plasma concentration of TMC278 (mean of 2 dogs, 648 h (d27)): 11.2 ng/mL
- plasma concentration of TMC278 (mean of 2 dogs, 696 h (d29)): 14.5 ng/mL
- plasma concentration of TMC278 (mean of 2 dogs, 864 h (d36)): 8.79 ng/mL
- plasma concentration of TMC278 (mean of 2 dogs, 1032 h (d43)): 7.25 ng/mL
- plasma concentration of TMC278 (mean of 2 dogs, 1200 h (d50)): 5.12 ng/mL
- plasma concentration of TMC278 (mean of 2 dogs, 1368 h (d57)): 4.91 ng/mL
- plasma concentration of TMC278 (mean of 2 dogs, 1536 h (d64)): 4.45 ng/mL
- plasma concentration of TMC278 (mean of 2 dogs, 1704 h (d71)): 3.64 ng/mL
- plasma concentration of TMC278 (mean of 2 dogs, 1872 h (d78)): 3.16 ng/mL
- plasma concentration of TMC278 (mean of 2 dogs, 2040 h (d85)): 3.60 ng/mL
- plasma concentration of TMC278 (mean of 2 dogs, 2208 h (d92)): 2.89 ng/mL
Compound: Cc1cc(/C=C/C#N)cc(C)c1Nc1ccnc(Nc2ccc(C#N)cc2)n1.Cl [TMC278.HCl]
- blood plasma levels after injection (in words) (injectable formulation of nanonised substance, 5 mg/kg, male beagle dogs): stable blood plasma levels during a prolonged period of time
